Results from US20150057246A1, “SILYL-CONTAINING HETEROCYCLIC COMPOUNDS AND METHODS OF USE THEREOF FOR THE TREATMENT OF VIRAL DISEASES” (priority 2012, published 2015).
Like-named read-outs stand apart in the source and are kept apart here.

How the values were obtained:
[1] = test system: HCV 1a replicon; experiment: Cell-based HCV replicon assay (TaqMan), genotype 1a replicon; conditions: HCV genotype 1a replicon cells, replicon RNA by real time PCR, day 3, EC90 = concentration for ΔCT=3.2 over baseline
Description: (§1) Measurement of inhibition by compounds of the present invention was performed using the HCV replicon system. Several different replicons encoding different HCV genotypes or mutations were used. In addition, potency measurements were made using different formats of the replicon assay, including different ways of measurements and different plating formats. See Jan M. Vrolijk et al., A replicons-based bioassay for the measurement of interferons in patients with chronic hepatitis C, 110 J. VIROLOGICAL METHODS 201 (2003); Steven S. Carroll et al., Inhibition of Hepatitis C Virus RNA Replication by 2′-Modified Nucleoside Analogs, 278(14) J. BIOLOGICAL CHEMISTRY 11979 (2003). However, the underlying principles are common to all of these determinations, and are outlined below.
(§2) TaqMan®-Based Assay Protocol:
(§3) Compounds of the present invention were assayed for cell-based anti-HCV activity using the following protocol. Replicon cells were seeded at 5000 cells/well in 96-well collagen I-coated Nunc plates in the presence of the test compound. Various concentrations of test compound, typically in 10 serial 2-fold dilutions, were added to the assay mixture, with the starting concentration ranging from 250 μM to 1 μM. The final concentration of DMSO was 0.5%, fetal bovine serum was 5%, in the assay media. Cells were harvested on day 3 by the addition of 1× cell lysis buffer (Ambion cat #8721). The replicon RNA level was measured using real time PCR (TaqMan® assay). The amplicon was located in 5B. The PCR primers were: 5B.2F, ATGGACAGGCGCCCTGA (SEQ. ID NO. 1); 5B.2R, […] (SEQ. ID NO. 2); the probe sequence was FAM-labeled CACGCCATGCGCTGCGG (SEQ. ID NO. 3). GAPDH RNA was used as endogenous control and was amplified in the same reaction as NS5B (multiplex PCR) using primers and VIC-labeled probe recommended by the manufacturer (PE Applied Biosystem). The real-time […] reactions were run on ABI PRISM 7900HT Sequence Detection System using the following program: 48° C. for 30 minutes, 95° C. for 10 minutes, 40 cycles of 95° C. for 15 sec, 60° C. for 1 minute. The ΔCT values (CT5B-CTGAPDH) were plotted against the concentration of test compound and fitted to the sigmoid dose-response model using XLfit4 (MDL). EC50 was defined as the concentration of inhibitor necessary to achieve ΔCT=1 over the projected baseline; EC90 the concentration necessary to achieve ΔCT=3.2 over the baseline. Alternatively, to quantitate the absolute amount of replicon RNA, a standard curve was established by including serially diluted T7 transcripts of replicon RNA in the Taqman assay. All TaqMan® reagents were from PE Applied Biosystems. Such an assay procedure was described in detail in e.g. Malcolm et al., Antimicrobial Agents and Chemotherapy 50: 1013-1020 (2006).
(§4) HCV replicon EC50 assay data for various replicons and mutants was calculated for selected compounds of the present invention using this method and is provided in the tables above herein.

[2] = test system: HCV 1b replicon; experiment: Cell-based HCV replicon assay (TaqMan), genotype 1b replicon; conditions: HCV genotype 1b replicon cells, replicon RNA by real time PCR, day 3, EC90 = concentration for ΔCT=3.2 over baseline
Description: as §1, §2, §3, §4

[3] = test system: HCV 1a Y93H replicon; experiment: Cell-based HCV replicon assay (TaqMan), 1a Y93H mutant replicon; conditions: EC90 = concentration for ΔCT=3.2 over baseline
Description: as §1, §2, §3, §4

[4] = test system: HCV 2b replicon; experiment: Cell-based HCV replicon assay (TaqMan), genotype 2b replicon; conditions: Hepatitis C virus, 72 h, read-out: 2b EC90, HCV genotype 2b replicon cells, replicon RNA by real time PCR, day 3; EC90 = concentration for ΔCT=3.2 over baseline
Description: as §1, §2, §3, §4

[5] = Hepatitis C virus, 72 h, read-out: 1a Y93H EC90, HCV 1a Y93H mutant replicon cells, replicon RNA by real time PCR, day 3

| SMILES | EC90 ([1]; Hepatitis C virus, 72 h) [nM] | EC90 ([2]; Hepatitis C virus, 72 h) [nM] | EC90 [3, 5] [nM] | EC90 [1] [nM] | EC90 [2] [nM] | EC90 ([3]; read-out: 1a Y93H EC90, HCV 1a Y93H mutant replicon cells, replicon RNA by real time PCR, day 3) [nM] | EC90 [4] [nM] |
| --- | --- | --- | --- | --- | --- | --- | --- |
| COC(=O)N[C@H](C(=O)N1C[Si](C)(C)C[C@H]1c1ncc(-c2ccc(-c3ccc4c(ccc5nc([C@@H]6CCCN6C(=O)[C@@H](NC(=O)OC)C(C)C)[nH]c54)c3)cc2)[nH]1)C(C)C [Compound 3] | 0.031 | 0.006 | 280 | – | – | – | – |
| COC(=O)N[C@H](C(=O)N1C[Si](C)(C)C[C@H]1c1ncc(-c2ccc(-c3ccc4c(ccc5[nH]c([C@@H]6[C@H]7CC[C@H](C7)N6C(=O)[C@@H](NC(=O)OC)C(C)C)nc54)c3)cc2)[nH]1)C(C)C [Compound 4] | 0.097 | 0.005 | 333 | – | – | – | – |
| COC(=O)N[C@H](C(=O)N1CCC[C@H]1c1ncc(-c2ccc(-c3ccc4c(ccc5nc([C@@H]6C[Si](C)(C)CN6C(=O)[C@@H](NC(=O)OC)C(C)C)[nH]c54)c3)cc2)[nH]1)C(C)C [Compound 5] | 0.012 | 0.006 | 181 | – | – | – | – |
| COC(=O)N[C@H](C(=O)N1C[Si](C)(C)C[C@H]1c1nc2ccc3cc(-c4ccc(-c5cnc([C@@H]6[C@H]7CC[C@H](C7)N6C(=O)[C@@H](NC(=O)OC)C(C)C)[nH]5)cc4)ccc3c2[nH]1)C(C)C [Compound 6] | 0.17 | 0.02 | 404 | – | – | – | – |
| COC(=O)N[C@H](C(=O)N1CC(F)(F)C[C@H]1c1ncc(-c2ccc(-c3ccc4c(ccc5nc([C@@H]6C[Si](C)(C)CN6C(=O)[C@@H](NC(=O)OC)C(C)C)[nH]c54)c3)cc2)[nH]1)C(C)C [Compound 7] | 0.047 | 0.005 | 172 | – | – | – | – |
| COC(=O)N[C@H](C(=O)N1C[Si](C)(C)C[C@H]1c1ncc(-c2ccc(-c3ccc4c(ccc5nc([C@@H]6CC(F)(F)CN6C(=O)[C@@H](NC(=O)OC)C(C)C)[nH]c54)c3)cc2)[nH]1)C(C)C [Compound 8] | 0.042 | 0.02 | 65 | – | – | – | – |
| COC(=O)N[C@H](C(=O)N1CC(F)(F)C[C@H]1c1nc2ccc3cc(-c4ccc5c(ccc6nc([C@@H]7C[Si](C)(C)CN7C(=O)[C@@H](NC(=O)OC)C(C)C)[nH]c65)c4)ccc3c2[nH]1)C(C)C [Compound 9] | 0.02 | 0.007 | 169 | – | – | – | – |
| COC(=O)N[C@H](C(=O)N1C[C@H](F)C[C@H]1c1ncc(-c2ccc(-c3ccc4c(ccc5nc([C@@H]6C[Si](C)(C)CN6C(=O)[C@@H](NC(=O)OC)C(C)C)[nH]c54)c3)cc2)[nH]1)C(C)C [Compound 10] | 0.15 | 0.009 | 92 | – | – | – | – |
| COC(=O)N[C@H](C(=O)N1C[C@H](O)C[C@H]1c1ncc(-c2ccc(-c3ccc4c(ccc5nc([C@@H]6C[Si](C)(C)CN6C(=O)[C@@H](NC(=O)OC)C(C)C)[nH]c54)c3)cc2)[nH]1)C(C)C [Compound 11] | 0.26 | 0.008 | 152 | – | – | – | – |
| COC(=O)N[C@H](C(=O)N1C[Si](C)(C)C[C@H]1c1nc2ccc3cc(-c4ccc(-c5cnc([C@@H]6C[C@H]7C[C@H]7N6C(=O)[C@@H](NC(=O)OC)C(C)C)[nH]5)cc4)ccc3c2[nH]1)C(C)C [Compound 12] | – | – | – | 0.006 | 0.001 | > 100 | – |
| COC(=O)N[C@H](C(=O)N1CCC[C@H]1c1ncc(-c2ccc(-c3ccc4c(ccc5nc([C@@H]6C[Si](C)(C)CN6C(=O)[C@@H](NC(=O)OC)C6CCOCC6)[nH]c54)c3)cc2)[nH]1)C1CCOCC1 [Compound 18] | 0.023 | 0.014 | > 100 | – | – | – | 2.8 |
| CC[C@H](C)[C@H](NC(=O)OC)C(=O)N1CCC[C@H]1c1ncc(-c2ccc(-c3ccc4c(ccc5nc([C@@H]6C[Si](C)(C)CN6C(=O)[C@@H](NC(=O)OC)[C@@H](C)CC)[nH]c54)c3)cc2)[nH]1 [Compound 22] | 0.35 | 0.03 | 746 | – | – | – | 250 |
| COC(=O)N[C@H](C(=O)N1CCC[C@H]1c1ncc(-c2ccc(-c3ccc4c(ccc5nc([C@@H]6C[Si](C)(C)CN6C(=O)[C@@H](NC(=O)OC)C6CCCCC6)[nH]c54)c3)cc2)[nH]1)C(C)C [Compound 67] | 0.5 | 0.02 | > 1000 | – | – | – | 129 |
| COC(=O)N[C@H](C(=O)N1CCC[C@H]1c1ncc(-c2ccc(-c3ccc4c(ccc5nc([C@@H]6C[Si](C)(C)CN6C(=O)[C@@H](NC(=O)OC)[C@H](O)C(C)C)[nH]c54)c3)cc2)[nH]1)C(C)C [Compound 68] | 0.21 | 0.02 | > 1000 | – | – | – | 143 |
| COC(=O)N[C@H](C(=O)N1CCC[C@H]1c1ncc(-c2ccc(-c3ccc4c(ccc5nc([C@@H]6C[Si](C)(C)CN6C(=O)[C@@H](NC(=O)OC)C6CCOCC6)[nH]c54)c3)cc2)[nH]1)C(C)C [Compound 69] | 0.33 | 0.05 | 118 | – | – | – | 19 |
| COC(=O)N[C@H](C(=O)N1CCC[C@H]1c1ncc(-c2ccc(-c3ccc4c(ccc5nc([C@@H]6C[Si](C)(C)CN6C(=O)[C@@H](NC(=O)OC)C6CC6)[nH]c54)c3)cc2)[nH]1)C(C)C [Compound 70] | 0.35 | 0.02 | > 1000 | – | – | – | 162 |
| COC(=O)N[C@H](C(=O)N1CCC[C@H]1c1ncc(-c2ccc(-c3ccc4c(ccc5nc([C@@H]6C[Si](C)(C)CN6C(=O)C6(NC(=O)OC)CCC6)[nH]c54)c3)cc2)[nH]1)C(C)C [Compound 71] | 10 | 0.03 | 288 | – | – | – | 205 |
| COC(=O)N[C@@H](CC(C)(C)C)C(=O)N1C[Si](C)(C)C[C@H]1c1nc2ccc3cc(-c4ccc(-c5cnc([C@@H]6CCCN6C(=O)[C@@H](NC(=O)OC)C(C)C)[nH]5)cc4)ccc3c2[nH]1 [Compound 72] | 0.18 | 0.02 | 130 | – | – | – | 114 |
| COC(=O)N[C@@H](CN(C)C)C(=O)N1C[Si](C)(C)C[C@H]1c1nc2ccc3cc(-c4ccc(-c5cnc([C@@H]6CCCN6C(=O)[C@@H](NC(=O)OC)C(C)C)[nH]5)cc4)ccc3c2[nH]1 [Compound 73] | 0.19 | 0.05 | > 1000 | – | – | – | 110 |
| COC(=O)N[C@H](C(=O)N1CCC[C@H]1c1ncc(-c2ccc(-c3ccc4c(ccc5nc([C@@H]6C[Si](C)(C)CN6C(=O)[C@H](NC(=O)OC)C(C)(C)OC)[nH]c54)c3)cc2)[nH]1)C(C)C [Compound 74] | 1.3 | 0.03 | > 1000 | – | – | – | 380 |
| COC(=O)NC(Cc1cccs1)C(=O)N1C[Si](C)(C)C[C@H]1c1nc2ccc3cc(-c4ccc(-c5cnc([C@@H]6CCCN6C(=O)[C@@H](NC(=O)OC)C(C)C)[nH]5)cc4)ccc3c2[nH]1 (stereo partly drawn) [Compound 75] | 3.4 | 0.04 | > 1000 | – | – | – | 425 |
| COC(=O)N[C@@H](CSC)C(=O)N1C[Si](C)(C)C[C@H]1c1nc2ccc3cc(-c4ccc(-c5cnc([C@@H]6CCCN6C(=O)[C@@H](NC(=O)OC)C(C)C)[nH]5)cc4)ccc3c2[nH]1 [Compound 76] | 0.25 | 0.03 | 984 | – | – | – | 108 |
| COC(=O)N[C@H](C(=O)N1CCC[C@H]1c1ncc(-c2ccc3cc(-c4ccc5c(ccc6nc([C@@H]7C[Si](C)(C)CN7C(=O)[C@@H](NC(=O)OC)C7CCOCC7)[nH]c65)c4)ccc3c2)[nH]1)C1CCOCC1 [Compound 113] | 0.026 | > 1 | – | – | – | – | 97 |
